Measured values reported in patent US20110038948A1, “Methods of Reducing the Production of Reactive Oxygen Species and Methods of Screening or Identifying Compounds and Compositions that Reduce the Production of Reactive Oxygen Species” (UNIVERSITY OF TENNESSEE RESEARCH FOUNDATION, priority 2005, published 2011).

Assays:
adiponectin = assay: Adiponectin expression in 3T3-L1 adipocytes; type: cell-based, mouse; details: 48 h
Experimental: 3T3-L1 pre-adipocytes were incubated at a density of 8000 cells/cm^2 (10 cm^2 dish) and grown in Dulbecco's modified Eagle's medium (DMEM) containing 10% FBS and antibiotics (adipocyte medium) at 37° C. in 5% CO2 in air. Confluent pre-adipocytes were induced to differentiate with a standard differentiation medium consisting of DMEM-F10 (1:1, vol/vol) medium supplemented with 1% fetal bovine serum (FBS), 1 μM dexamethasone, isobutylmethylxanthine (IBMX) (0.5 mM) and antibiotics (1% Penicillin-Streptomycin). Pre-adipocytes were maintained in this differentiation medium for 3 days and subsequently cultured in adipocyte medium. Cultures were re-fed every 2-3 days to allow 90% cells to reach fully differentiation before conducting chemical treatment. […] Cell viability was measured via trypan blue exclusion. Adipocyte and muscle 18s, TNFα, IL-6, IL-8, IL-15 and adiponectin were quantitatively measured using a smart cycler real-time PCR system (Cepheid, Sunnyvale, Calif.) with a TaqMan 1000 Core Reagent Kit (Applied Biosystems, Branchburg, N.J.). […] Reactions of quantitative RT-PCR for standards and unknown samples were also performed according to the instructions of Smart Cycler System (Cepheid, Sunnyvale, Calif.) and TaqMan Real Time PCR Core Kit (Applied Biosystems, Branchburg, N.J.). The mRNA quantitation for each sample was further normalized using the corresponding 18s quantitation.

3T3-L1 adipocytes = assay: Mitochondrial membrane potential (JC-1); type: cell-based, mouse; details: H2O2 100 nmol/L, 48 hours
Experimental: 3T3-L1 preadipocytes were incubated at a density of 8000 cells/cm^2 (10 cm^2 dish) and grown in Dulbecco's modified Eagle's medium (DMEM) containing 10% FBS and antibiotics (adipocyte medium) at 37° C. in 5% CO2 in air. Confluent preadipocytes were induced to differentiate with a standard differentiation medium consisting of DMEM-F10 (1:1, vol/vol) medium supplemented with 1% FBS, 1 μM dexamethasone, IBMX (0.5 mM) and antibiotics (1% Penicillin-Streptomycin). Preadipocytes were maintained in this differentiation medium for 3 days and subsequently cultured in adipocyte medium. Cultures were re-fed every 2-3 days to allow 90% of cells to reach full differentiation before conducting chemical treatment. Chemicals were freshly diluted in adipocyte medium before treatment. […] Cell viability was measured via trypan blue exclusion.
Mitochondrial membrane potential was analyzed fluorometrically with a lipophilic cationic dye JC-1 (5,5′,6,6′-tetrachloro-1,1′,3,3′-tetraethylbenzimidazol carbocyanine iodide) using a mitochondrial potential detection kit (Biocarta, San Diego, Calif.). Mitochondrial potential was determined as the ratio of red fluorescence (excitation 550 nm, emission 600 nm) and green fluorescence (excitation 485 nm, emission 535 nm) using a fluorescence microplate reader.

Structure (SMILES): OO [H2O2, hydrogen peroxide]
- effect on adiponectin production (adiponectin): without significant effect
- increase in mitochondrial potential (3T3-L1 adipocytes): 72%
